Patent publication US10087172B2, “Compounds and their methods of use” (AGIOS PHARMACEUTICALS, INC, priority 2012, dated 2018)

Target: T1, glutaminase (GAC) (Homo sapiens, UniProt O94925)
T1 sequence (O94925 55-598 isoform O94925-3 limits assumed): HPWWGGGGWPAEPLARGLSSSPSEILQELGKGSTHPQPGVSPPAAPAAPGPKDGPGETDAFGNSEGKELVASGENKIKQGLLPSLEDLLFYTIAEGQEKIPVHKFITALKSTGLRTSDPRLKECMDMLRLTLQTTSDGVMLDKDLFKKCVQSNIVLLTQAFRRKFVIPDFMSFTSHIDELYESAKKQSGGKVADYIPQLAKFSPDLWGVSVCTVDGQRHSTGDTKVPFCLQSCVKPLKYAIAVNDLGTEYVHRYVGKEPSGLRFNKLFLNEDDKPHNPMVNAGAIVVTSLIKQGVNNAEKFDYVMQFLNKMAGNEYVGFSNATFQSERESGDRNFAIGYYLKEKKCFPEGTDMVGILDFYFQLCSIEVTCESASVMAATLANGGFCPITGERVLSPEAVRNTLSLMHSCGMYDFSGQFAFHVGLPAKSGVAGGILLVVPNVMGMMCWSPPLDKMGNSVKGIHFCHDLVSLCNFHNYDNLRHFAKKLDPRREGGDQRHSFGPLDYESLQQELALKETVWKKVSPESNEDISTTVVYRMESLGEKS
Experiment: Glutaminase (GAC) coupled endpoint enzymatic assay (glutamate dehydrogenase/diaphorase/resazurin, Ex544/Em590)
Format: biochemical
Details: inhibition of glutaminase, tested in an assay of Example A or Example B; class symbols A-E
Summary of the method: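 Compound preincubated 60 min at room temperature with 0.875 μg/ml GAC, 1.56 mM NAD and 6.25 U/ml GDH in HEPES/phosphate buffer pH 8.5; substrate mix then added, giving glutamine at Km. Coupled GDH/diaphorase converts resazurin to resorufin; reaction stopped with SDS and fluorescence read at Ex544/Em590.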

| Structure (SMILES) | IC50 |
| --- | --- |
| O=C(Nc1nnc([C@H]2CCC[C@H](c3nnc(NC(=O)[C@H](O)c4ccccc4)s3)C2)s1)[C@H](O)c1ccccc1 [Compound 370, (2R,2′R)—N,N′-(5,5′-((1S,3S)-cyclohexane-1,3-diyl)bis(1,3,4-thiadiazole-5,2-diyl))bis(2-hydroxy-2-phenylacetamide)] | < 0.1 µM |
| O=C(Nc1nnc([C@H]2CCC[C@H](c3nnc(NC(=O)[C@@H](O)c4ccccc4)s3)C2)s1)[C@@H](O)c1ccccc1 [Compound 371, (2R,2′S)—N,N′-(5,5′-((1S,3S)-cyclohexane-1,3-diyl)bis(1,3,4-thiadiazole-5,2-diyl))bis(2-hydroxy-2-phenylacetamide)] | < 0.1 µM |
| O=C(Cc1cccc(OC(F)(F)F)c1)Nc1nnc([C@H]2CCC[C@H](c3nnc(NC(=O)[C@@H](O)c4ccccc4)s3)C2)s1 [Compound 372, (S)-2-hydroxy-2-phenyl-N-(5-((1S,3S)-3-(5-(2-(3-(trifluoromethoxy)phenyl)acetamido)-1,3,4-thiadiazol-2-yl)cyclohexyl)-1,3,4-thiadiazol-2-yl)acetamide] | < 0.1 µM |
| O=C(Cc1cccc(OC(F)(F)F)c1)Nc1nnc([C@H]2CC[C@H](c3nnc(NC(=O)[C@@H](O)c4ccccc4)s3)C2)s1 [Compound 374, (S)-2-hydroxy-2-phenyl-N-(5-((1S,3S)-3-(5-(2-(3-(trifluoromethoxy)phenyl)acetamido)-1,3,4-thiadiazol-2-yl)cyclopentyl)-1,3,4-thiadiazol-2-yl)acetamide] | < 0.1 µM |
| O=C(Nc1nnc([C@H]2CC[C@H](c3nnc(NC(=O)[C@@H](O)c4ccccc4)s3)C2)s1)[C@@H](O)c1ccccc1 [Compound 379] | < 0.1 µM |
| O=C(Nc1nnc([C@H]2CCC[C@H](c3nnc(NC(=O)C(CO)c4ccccc4)s3)C2)s1)C(CO)c1ccccc1 (stereo partly drawn) [Compound 380, N,N′-(5,5′-((1S,3S)-cyclohexane-1,3-diyl)bis(1,3,4-thiadiazole-5,2-diyl))bis(3-hydroxy-2-phenylpropanamide)] | < 0.1 µM |
| O=C(Cc1cccc(OC(F)(F)F)c1)Nc1nnc([C@H]2CCC[C@H](c3nnc(NC(=O)C(CO)c4ccccc4)s3)C2)s1 (some centres unmarked) [Compound 381] | < 0.1 µM |
| O=C(Nc1nnc([C@H]2CC[C@H](c3nnc(NC(=O)[C@H](O)c4ccccc4)s3)C2)s1)[C@H](O)c1ccccc1 [Compound 382] | < 0.1 µM |

Further lines, results first:

| IC50 | Structure (SMILES) |
| --- | --- |
| < 0.1 µM | O=C(Cc1cccc(OC(F)(F)F)c1)Nc1nnc([C@H]2CC[C@H](c3nnc(NC(=O)Cc4cccc(N5CC(F)(F)C5)n4)s3)C2)s1 [Compound 373] |
| < 0.1 µM | N#Cc1cccc(CC(=O)Nc2nnc([C@H]3CCC[C@H](c4nnc(NC(=O)Cc5cccc(OC(F)(F)F)c5)s4)C3)s2)n1 [Compound 375, 2-(6-cyanopyridin-2-yl)-N-(5-((1S,3S)-3-(5-(2-(3-(trifluoromethoxy)phenyl)acetamido)-1,3,4-thiadiazol-2-yl)cyclohexyl)-1,3,4-thiadiazol-2-yl)acetamide] |
| < 0.1 µM | O=C(Cc1ccccn1)Nc1nnc([C@H]2CCC[C@H](c3nnc(NC(=O)[C@@H](O)c4ccccc4)s3)C2)s1 [Compound 376, (S)-2-hydroxy-2-phenyl-N-(5-((1S,3S)-3-(5-(2-(pyridin-2-yl)acetamido)-1,3,4-thiadiazol-2-yl)cyclohexyl)-1,3,4-thiadiazol-2-yl)acetamide] |
| < 0.1 µM | O=C(Cc1cccc(N2CC(F)(F)C2)n1)Nc1nnc([C@H]2CC[C@H](c3nnc(NC(=O)[C@@H](O)c4ccccc4)s3)C2)s1 [Compound 377, (S)—N-(5-((1S,3S)-3-(5-(2-(6-(3,3-difluoroazetidin-1-yl)pyridin-2-yl)acetamido)-1,3,4-thiadiazol-2-yl)cyclopentyl)-1,3,4-thiadiazol-2-yl)-2-hydroxy-2-phenylacetamide] |
| < 0.1 µM | O=C(Cc1cccc(N2CC(F)(F)C2)n1)Nc1nnc([C@H]2CC[C@H](c3nnc(NC(=O)[C@H](O)c4ccccc4)s3)C2)s1 [Compound 378, (R)—N-(5-((1S,3S)-3-(5-(2-(6-(3,3-difluoroazetidin-1-yl)pyridin-2-yl)acetamido)-1,3,4-thiadiazol-2-yl)cyclopentyl)-1,3,4-thiadiazol-2-yl)-2-hydroxy-2-phenylacetamide] |
| < 0.1 µM | CC(=O)N(C)c1cccc(CC(=O)Nc2nnc([C@H]3CCC[C@H](c4nnc(NC(=O)Cc5cccc(N(C)C(C)=O)n5)s4)C3)s2)n1 [Compound 385, N,N′-(5,5′-((1S,3S)-cyclohexane-1,3-diyl)bis(1,3,4-thiadiazole-5,2-diyl))bis(2-(6-(N-methylacetamido)pyridin-2-yl)acetamide)] |
| < 0.1 µM | O=C(Cc1cccc(N2CC(F)(F)C2)n1)Nc1nnc([C@H]2CCC[C@H](c3nnc(NC(=O)[C@@H](O)c4ccccc4)s3)C2)s1 [Compound 387, (S)—N-(5-((1S,3S)-3-(5-(2-(6-(3,3-difluoroazetidin-1-yl)pyridin-2-yl)acetamido)-1,3,4-thiadiazol-2-yl)cyclohexyl)-1,3,4-thiadiazol-2-yl)-2-hydroxy-2-phenylacetamide] |
| < 0.1 µM | O=C(Cc1cccc(OC(F)(F)F)c1)Nc1nnc([C@H]2CCC[C@H](c3nnc(NC(=O)Cc4cccc(N5CC(F)(F)C5)n4)s3)C2)s1 [Compound 388, 2-(6-(3,3-difluoroazetidin-1-yl)pyridin-2-yl)-N-(5-((1S,3S)-3-(5-(2-(3-(trifluoromethoxy)phenyl)acetamido)-1,3,4-thiadiazol-2-yl)cyclohexyl)-1,3,4-thiadiazol-2-yl)acetamide] |
| < 0.1 µM | O=C(Cc1cccc(OC(F)(F)F)c1)Nc1nnc([C@H]2CCC[C@H](c3nnc(NC(=O)C(CO)c4ccccc4)s3)C2)s1 (stereo partly drawn) [Compound 389, 3-hydroxy-2-phenyl-N-(5-((1S,3S)-3-(5-(2-(3-(trifluoromethoxy)phenyl)acetamido)-1,3,4-thiadiazol-2-yl)cyclohexyl)-1,3,4-thiadiazol-2-yl)propanamide] |
